Legend:
Format in all cases: in vivo
[1] = test system: Western Flower thrips (Frankliniella occidentalis); assay: Insecticidal test on western flower thrips, kidney bean leaf pieces; conditions: 96 h, 4 days after treatment, read-out: insecticidal efficacy (corrected mortality rate) against western flower thrips
From the text: Insecticidal Test on Western Flower thrips (Frankliniella occidentalis)
Female adults of western flower thrips were inoculated onto kidney bean leaf pieces, and allowed to lay eggs thereon for one day, then the female adults were removed. After 3 days, the hatched larvae on the leaf pieces were counted, and then the agrochemical dispersions diluted to 50 ppm or 500 ppm, each of which contained the compound described in Tables 1 to 4 as an active ingredient were applied. The number of larvae of the species surviving at 4 days after the treatment was counted, and the corrected mortality rate was calculated according to the formula shown below, and the insecticidal efficacy was evaluated according to the criteria of Test Example 1. This test was conducted in duplicate. Corrected mortality rate (%)=(Survival rate in a non-treatment plot−Survival rate in a treatment plot)/(Survival rate in a non-treatment plot)×100 [Expression 3]

[2] = test system: Diamondback moth (Plutella xylostella); assay: Insecticidal test on diamondback moth, dip treatment of Chinese cabbage seedlings with laid eggs; conditions: 144 h, 6 days after treatment, read-out: insecticidal efficacy (corrected mortality rate) against diamondback moth
From the text: Insecticidal Test on Diamondback moth (Plutella xylostella)
Adults of diamondback moth were released onto Chinese cabbage seedlings and allowed to lay eggs thereon. At 2 days after the release of the adults, the Chinese cabbage seedlings with laid eggs were dipped for about 30 seconds in agrochemical dispersions diluted to 50 ppm or 500 ppm, each of which contained a different compound represented by the general formula (1) of the present invention as an active ingredient. After air-dried, the seedlings were kept in a thermostatic chamber at 25° C. At 6 days after the dip treatment, the number of surviving larvae per plot was counted, the corrected mortality rate was calculated according to the formula shown below, and the insecticidal efficacy was evaluated according to the criteria shown below. This test was conducted in triplicate using 10 adults of diamondback moth per plot. Corrected mortality rate (%)=(Survival rate in a non-treatment plot−Survival rate in a treatment plot)/(Survival rate in a non-treatment plot)×100 [Expression 1] Criteria: • A: the mortality rate is 100%. • B: the mortality rate is 90 to 99%. • C: the mortality rate is 80 to 89%. • D: the mortality rate is 50 to 79%. • E: the mortality rate is 0 to 49%.

[3] = test system: Small Brown Planthopper (Laodelphax striatellus); assay: Insecticidal test on small brown planthopper, dip treatment of rice seedlings; conditions: 192 h, rice seedling dip, 8 days after inoculation, read-out: insecticidal efficacy (corrected mortality rate) against small brown planthopper
From the text: Insecticidal Test on Small Brown Planthopper (Laodelphax striatellus)
The compounds represented by the general formula (1) of the present invention or salts thereof were separately dispersed in water and diluted to 50 ppm or 500 ppm. Rice plant seedlings (variety: Nihonbare) were dipped in the agrochemical dispersions for 30 seconds. After air-dried, each seedling was put into a separate glass test tube and inoculated with ten 3rd-instar larvae of small brown planthopper, and then the glass test tubes were capped with cotton plugs. At 8 days after the inoculation, the numbers of surviving larvae and dead larvae were counted, the corrected mortality rate was calculated according to the formula shown below, and the insecticidal efficacy was evaluated according to the criteria of Test Example 1. Corrected mortality rate (%)=(Survival rate in a non-treatment plot−Survival rate in a treatment plot)/(Survival rate in a non-treatment plot)×100 [Expression 2]

CSC(Nc1ccc(F)cc1)=C1C(=O)CN(c2ccc(C#N)nc2)N(C(=O)C2CC2)C1=O [Compound No. 1-44, (4EZ)-5-(2-(cyclopropanecarbonyl)-4-(((4-fluorophenyl)amino)(methylthio)methylene)-3,5-dioxo-tetrahydropyridazin-1(2H)-yl)picolinonitrile]
100%: mortality at 50 ppm [1] | mortality at 500 ppm [1] | mortality at 500 ppm [2] | mortality at 50 ppm [3] | mortality at 500 ppm [3]

CSC(Nc1ccc(F)cc1)=C1C(=O)CN(c2ccc(C(F)(F)F)nc2)N(C(=O)OC(C)(C)C)C1=O [Compound No. 1-63, tert-butyl (5EZ)-5-(((4-fluorophenyl)amino)(methylthio)methylene)-4,6-dioxo-2-[6-(trifluoromethyl)pyridin-3-yl]-tetrahydropyridazine-1(2H)-carboxylate]
100%: mortality at 50 ppm [1] | mortality at 500 ppm [1] | mortality at 50 ppm ([2]; 50 ppm) | mortality at 500 ppm [2] | mortality at 50 ppm [3] | mortality at 500 ppm [3]

CCCNC(=O)N1C(=O)C(=C(Nc2ccc(F)cc2)SC)C(=O)CN1c1ccc(C#N)nc1 [Compound No. 1-182, (5EZ)-2-(6-cyanopyridin-3-yl)-5-(((4-fluorophenyl)amino)(methylthio)methylene)-4,6-dioxo-N-propyl-tetrahydropyridazine-1(2H)-carboxamide]
100%: mortality at 50 ppm [3] | mortality at 500 ppm [3]

CSC(Nc1ccc(F)cc1)=C1C(=O)CN(c2ccc(C#N)nc2)N(C)C1=O [Compound No. 1-197, (4EZ)-5-(4-(((4-fluorophenyl)amino)(methylthio)methylene)-2-methyl-3,5-dioxo-tetrahydropyridazin-1(2H)-yl)picolinonitrile]
100%: mortality at 50 ppm [1] | mortality at 500 ppm [1] | mortality at 50 ppm [3] | mortality at 500 ppm [3]

— patent publication US12698269B2, “1-aryltetrahydropyridazine-3,5-dione derivative or salt thereof and insecticidal agent containing the compound and method for using same” (NIHON NOHYAKU CO., LTD., priority 2022, dated 2026)
